Data from ChEMBL document CHEMBL4613311, “Synthesis of Novel G Factor or Chloroquine-Artemisinin Hybrids and Conjugates with Potent Antiplasmodial Activity” (ACS Med Chem Lett, 2020).
pIC50: −log10 of the molar value.

What was measured:
Plasmodium falciparum [1] = assay: Antiplasmodial activity against chloroquine resistant Plasmodium falciparum FcB1/Columbia infected in human erythrocytes preincubated for 24 hrs followed by [3H]-hypoxanthine addition and measured after 24 hrs by liquid scintillation analysis; type: functional, organism-based
[2] = Selectivity index, ratio of IC50 for human AB943 cells to IC50 for antiplasmodial activity against chloroquine resistant Plasmodium falciparum FcB1/Colombia infected in human erythrocytes; type: toxicity, cell-based; conditions: read-out: Ratio IC50
Plasmodium falciparum [3] = assay: Antiplasmodial activity against chloroquine resistant Plasmodium falciparum FcB1/Columbia infected in human erythrocytes at 10 nM preincubated for 24 hrs followed by [3H]-hypoxanthine addition and measured after 24 hrs by liquid scintillation analysis relative to control; type: functional

Row | SMILES | pIC50 (Plasmodium falciparum [1]) | selectivity ratio [2] | inhibition at 0.01 µM (Plasmodium falciparum [3])
1 | COC12OOC3(C=C1C(=O)C(C)(C)C(=O)C2(C)C)CCN(C(=O)CCC(=O)NCCCCN(CCCNC(=O)CCC(=O)N1CCC2(C=C4C(=O)C(C)(C)C(=O)C(C)(C)C4(OC)OO2)CC1)C(=O)CCC(=O)NCCNc1ccnc2cc(Cl)ccc12)CC3 (stereo not drawn) | < 6.78 | – | –
2 | COC12OOC3(C=C1C(=O)C(C)(C)C(=O)C2(C)C)CCN(C(=O)CCC(=O)N(CCCCNC(=O)CC[C@H]1O[C@@H]2O[C@@]4(C)CC[C@H]5[C@H](C)CC[C@@H]([C@H]1C)[C@@]25OO4)CCCNC(=O)CC[C@H]1O[C@@H]2O[C@@]4(C)CC[C@H]5[C@H](C)CC[C@@H]([C@H]1C)[C@@]25OO4)CC3 (stereo partly drawn) | 8.08 | 2110 | –
3 | COC12OOC3(C=C1C(=O)C(C)(C)C(=O)C2(C)C)CCN(C(=O)CCC(=O)N(CCCCNC(=O)CC[C@H]1O[C@@H]2O[C@@]4(C)CC[C@H]5[C@H](C)CC[C@@H]([C@H]1C)[C@@]25OO4)CCCCNC(=O)CC[C@H]1O[C@@H]2O[C@@]4(C)CC[C@H]5[C@H](C)CC[C@@H]([C@H]1C)[C@@]25OO4)CC3 (stereo partly drawn) | 7.97 | 983 | –
4 | COC12OOC3(C=C1C(=O)C(C)(C)C(=O)C2(C)C)CCN(C(=O)CC[C@H]1O[C@@H]2O[C@@]4(C)CC[C@H]5[C@H](C)CC[C@@H]([C@H]1C)[C@@]25OO4)CC3 (stereo partly drawn) | 8.59 | 16400 | –
5 | COC12OOC3(C=C1C(=O)C(C)(C)C(=O)C2(C)C)CCN(C(=O)CCC(=O)NCCCCN(CCCCNC(=O)CCC(=O)N1CCC2(C=C4C(=O)C(C)(C)C(=O)C(C)(C)C4(OC)OO2)CC1)C(=O)CCC(=O)NCCNc1ccnc2cc(Cl)ccc12)CC3 (stereo not drawn) | < 6.78 | – | –
6 | C[C@H]1[C@@H](CCC(=O)NCCNc2ccnc3cc(Cl)ccc23)O[C@@H]2O[C@@]3(C)CC[C@H]4[C@H](C)CC[C@@H]1[C@@]24OO3 | – | – | 11%
7 | C[C@@H]1CC[C@H]2[C@@H](C)C(=O)O[C@@H]3O[C@@]4(C)CC[C@@H]1[C@]32OO4 [ARTEMISININ] | 7.26 | > 4540 | –
8 | COC12OOC3(C=C1C(=O)C(C)(C)C(=O)C2(C)C)CCNCC3 (stereo not drawn) | < 6.60 | – | –
9 | C[C@H]1[C@@H](CCC(=O)NCCCCN(CCCNC(=O)CC[C@H]2O[C@@H]3O[C@@]4(C)CC[C@H]5[C@H](C)CC[C@@H]([C@H]2C)[C@@]35OO4)C(=O)CCC(=O)NCCNc2ccnc3cc(Cl)ccc23)O[C@@H]2O[C@@]3(C)CC[C@H]4[C@H](C)CC[C@@H]1[C@@]24OO3 | – | – | 33%
10 | C[C@H]1[C@@H](CCC(=O)N2CCN(c3ccnc4cc(Cl)ccc34)CC2)O[C@@H]2O[C@@]3(C)CC[C@H]4[C@H](C)CC[C@@H]1[C@@]24OO3 | – | – | 11%
11 | COC12OOC3(C=C1C(=O)C(C)(C)C(=O)C2(C)C)CCN(C(=O)CCC(=O)NCC[C@H]1O[C@@H]2O[C@@]4(C)CC[C@H]5[C@H](C)CC[C@@H]([C@H]1C)[C@@]25OO4)CC3 (stereo partly drawn) | 6.91 | 144 | –
12 | C[C@H]1[C@@H](CCC(=O)NCCCCN(CCCCNC(=O)CC[C@H]2O[C@@H]3O[C@@]4(C)CC[C@H]5[C@H](C)CC[C@@H]([C@H]2C)[C@@]35OO4)C(=O)CCC(=O)NCCNc2ccnc3cc(Cl)ccc23)O[C@@H]2O[C@@]3(C)CC[C@H]4[C@H](C)CC[C@@H]1[C@@]24OO3 | 7.28 | 328 | –
